Experimental data taken from PMC10064330, “Reversible Dual-Covalent Molecular Locking of the 14-3-3/ERRγ Protein–Protein Interaction as a Molecular Glue Drug Discovery Approach” (Journal of the American Chemical Society, 2023).
Square brackets hold non-standard residues; d marks the D form. Peptide text beside a SMILES is read from it. pS = N[C@@H](COP(=O)(O)O)C(=O)O

Legend:
14-3-3γ/ERRγ complex = molecular target: T1, 14-3-3γ/ERRγ complex (Homo sapiens, UniProt P61981+P62508); test: Fluorescence anisotropy (FA): 14-3-3γ titration to fluorescein-ERRγ phosphopeptide with 100 μM compound; type: binding; details: for stabilization factor SF100, Replicate 1 (Table S2) / stabilization factor SF100, Replicate 2 (Table S2) / stabilization factor SF100, Replicate 3 (Table S2) / stabilization factor SF100, Average (Table S2): KD DMSO control / apparent KD with 100 μM compound, 24 h; for stabilization factor SF100, Average (Table S2): average of three experiments
T1 construct: made in house; host or cells: E. coli NiCo21 (DE3)
Method: The stabilization of the ERRγ/14-3-3γ complex by the molecular locks was assessed using a fluorescence anisotropy (FA) assay where 14-3-3γ was titrated into a fluorescently labeled ERRγ phosphopeptide in the absence or presence of a 100 μM molecular lock (Figure 2a,b); this compound concentration was selected based on a FA compound titration assay (Figure S1).
Experimental Section Biophysical Assays
14-3-3γ protein expression (FA, TSA, MS assays)
A pPROEX HTb expression vector encoding the human 14-3-3 protein gamma (14-3-3γ) with a N-terminal his6-tag was transformed by heat shock into NiCo21 (DE3) competent cells. Single colonies were cultured in 50 mL LB medium (100 µg/mL ampicillin). After overnight incubation at 37 °C, cultures were transferred to 2 L TB media (100 µg/mL ampicillin, 1 mM MgCl2) and incubated at 37 °C until an OD600 nm of 0.8 -1.2 was reached. Protein expression was then induced with 0.4 mM isopropyl-β-d-thiogalactoside (IPTG), and cultures were incubated overnight at 18 °C. Cells were harvested by centrifugation (8600 rpm, 20 minu tes, 4 °C) and resuspended in lysis buffer (50 mM Hepes, pH 8.0, 300 mM NaCl, 12.5 mM imidazole, 5 mM MgCl2, 2 mM βME) containing cOmplete™ EDTA-free Protease Inhibitor Cocktail tablets (1 tablet/100 ml lysate) and benzonase ( 5 µl/100 ml). After lysis using a C3 Emulsiflex-C3 homogenizer (Avestin), the cell lysate was cleared by centrifugation (20000 rpm, 30 minutes, 4 °C) and purified using Ni2+-affinity chromatography (Ni -NTA superflow cartridges, Qiagen). Typically two 5 mL columns (flow 5 mL/min) were use d for a 2 L culture in which the lysate was loaded on the column , washed with 10 CV wash buffer (50 mM Hepes, pH 8.0, 300 mM NaCl, 25 mM imidazole, 2 mM βME), and eluted in several fractions (2-4 CV) of elution buffer (50 mM Hepes, pH 8.0, 300 mM NaCl, 250 mM imidazole, 2 mM βME). Fractions containing the 14 -3-3 protein were combined and dialyzed into 25 mM HEPES pH 8.0, 100 mM NaCl, 10 mM MgCl2, 500 µM TCEP. Finally, the protein was concentrated to ∼60 mg/mL, analyzed Q-Tof LC/MS, and aliquots were flash-frozen for storage at −80 °C.
14-3-3σΔc C38N protein expression (Crystallography)
A pPROEX HTb expression vector encoding the human 14-3-3 protein sigma truncated after T231 (14-3-3σΔc), mutated C38N, and containing a N-terminal his6-tag was transformed by heat shock into NiCo21 (DE3) competent cells. Single colonies were cultured in 50 mL LB medium (100 µg/mL ampicillin). After overnight incubation at 37 °C, cultures were transferred to 2 L TB media (100 µg/mL ampicillin, 1 mM MgCl2) and incubated at 37 °C until an OD600 nm of 0.8-1.2 was reached. Protein expression was then induced with 0.4 mM isopropyl-β-d-thiogalactoside (IPTG), and cultures were incubated overnight at 18 °C. Cells were harvested by centrifugation (8600 rpm, 20 minutes, 4 °C) and resuspended in lysis buffer (50 mM Hepes, pH 8.0, 300 mM NaCl, 12.5 mM imidazole, 5 mM MgCl2, 2 mM βME) containing cOmplete™ EDTA-free Protease Inhibitor Cocktail tablets (1 tablet/ 100 ml lysate) and benzonase (5 µl/ 100 ml). After lysis using a C3 Emulsiflex-C3 homogenizer (Avestin), […]
chromatography (Ni-NTA superflow cartridges, Qiagen). Typically two 5 mL columns were used for a 2 L culture in which the lysate was loaded on the column , washed with 10 CV wash buffer (50 mM Hepes, pH 8.0, 300 mM NaCl, 25 mM imidazole, 2 mM βME), and eluted with several fractions (2 -4 CV) of elution buffer (50 mM Hepes, pH 8.0, 300 mM NaCl, 250 mM imidazole, 2 mM βME). Fractions containing the 14-3-3 protein were combined and dialyzed into 25 mM HEPES pH 8.0, 200 mM NaCl, 10 mM MgCl 2, 2 mM βME. In addition, 1 mg TEV was added for each 100 mg purified protein to remove the purification tag. The cleaved sample was then again loaded on a 10 mL Ni-NTA column to separate the cleaved product from the expression tag and residual uncleaved protein. The flowthrough was loaded on a Superdex 75 pg 16/60 size exc lusion column (GE Life Sciences) using […]

14-3-3γ = molecular target: T2, 14-3-3γ (Homo sapiens, UniProt P61981); test: FA binding of client phosphopeptides to 14-3-3γ (binary complex); details: no stabilizer (DMSO); read-out: KD of binary 14-3-3γ/peptide complex
T2 construct: made in house; host or cells: E. coli NiCo21 (DE3)
T2 sequence (P61981 1-247): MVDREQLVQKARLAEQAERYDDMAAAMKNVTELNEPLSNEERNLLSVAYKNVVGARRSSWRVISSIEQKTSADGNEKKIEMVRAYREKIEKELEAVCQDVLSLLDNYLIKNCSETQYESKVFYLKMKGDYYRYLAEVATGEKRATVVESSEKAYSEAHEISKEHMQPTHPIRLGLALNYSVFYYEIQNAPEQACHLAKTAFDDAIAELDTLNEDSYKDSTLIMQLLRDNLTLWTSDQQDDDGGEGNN

Structure (SMILES) | stabilization factor SF100, Replicate 1 (Table S2) (14-3-3γ/ERRγ complex) | stabilization factor SF100, Replicate 2 (Table S2) (14-3-3γ/ERRγ complex) | stabilization factor SF100, Replicate 3 (Table S2) (14-3-3γ/ERRγ complex) | stabilization factor SF100, Average (Table S2) (14-3-3γ/ERRγ complex) | Kd (14-3-3γ) | stabilization of 14-3-3γ/ERRγ complex (SF100, fold) (14-3-3γ/ERRγ complex; 100 μM compound, 24 h incubation)
CN(C)CCSSCCN(C)C(=O)c1ccc(C=O)cc1 [compound 4] | 13.0 | 8.6 | 9.0 | 10.2 |  | 
CN(C)CCSSCCN(C)C(=O)c1ccc(C=O)c(Br)c1 [compound 6] | 22.3 | 14.3 | 16.9 | 17.8 |  | 
CN(C)CCSSCCN(C)S(=O)(=O)c1ccc(C=O)cc1 [compound 7] | 13.4 | 11.4 | 8.6 | 11.2 |  | 
CC(=O)N[C@@H](CCCCN)C(=O)N[C@@H](CCCNC(=N)N)C(=O)N[C@@H](CCCNC(=N)N)C(=O)N[C@@H](CCCNC(=N)N)C(=O)N[C@@H](CCCCN)C(=O)N[C@@H](COP(=O)(O)O)C(=O)N[C@@H](CS)C(=O)N[C@@H](CCC(N)=O)C(=O)N[C@@H](C)C(N)=O [ERRγ] (Ac-KRRRK[pS]CQA-NH2; N-terminus and C-terminus assumed) |  |  |  |  | 6.5 ± 0.9 µM | 
CN(C)CCSSCCN(C)C(=O)c1ccc(F)c(C=O)c1 [compound 9] | 8.5 | 5.4 | 7.9 | 7.3 |  | least active
CN(C)CCSSCCN(C)C(=O)c1cccc(C=O)c1 [compound 8] | 25.5 | 17.3 | 19.0 | 20.6 |  | 
